Laboratory results from US9359352B2, “Substituted benzimidazoles as PI3 kinase inhibitors” (Intellikine LLC, priority 2010, dated 2016).
Like-named read-outs stand apart in the source and are kept apart here.

Assays:
Assay type in all cases: biochemical
[1] = target: T1, PI3K α (Homo sapiens, UniProt P42336); assay: PI 3-Kinase HTRF inhibition assay, PI3K α
T1 construct: purchased Upstate
Procedure: (§1) Commercial kits or systems for assaying PI3-K activities are available. The commercially available kits or systems can be used to screen for inhibitors and/or agonists of PI3-Ks including but not limited to PI 3-Kinase α, β, δ, and γ. An exemplary system is PI 3-Kinase (human) HTRF™ Assay from Upstate. […] Briefly, the assay is a time resolved FRET assay that indirectly measures PIP3 product formed by the activity of a PI3-K. The kinase reaction is performed in a microtitre plate (e.g., a 384 well microtitre plate). The total reaction volume is approximately 20 ul per well. In the first step, each well receives 2 ul of test compound in 20% dimethylsulphoxide resulting in a 2% DMSO final concentration. Next, approximately 14.5 ul of a kinase/PIP2 mixture (diluted in 1× reaction buffer) is added per well for a final concentration of 0.25-0.3 ug/ml kinase and 10 μM PIP2. The plate is scaled and incubated for 15 minutes at room temperature. To start the reaction, 3.5 ul of ATP (diluted in 1× reaction buffer) is added per well for a final concentration of 10 μM ATP. The plate is sealed and incubated for 1 hour at room temperature. The reaction is stopped by adding 5 ul of Stop Solution per well and then 5 ul of Detection Mix is added per well. The plate is sealed, incubated for 1 hour at room temperature, and then read on an appropriate plate reader. Data is analyzed and IC50s are generated using GraphPad Prism 5. For PI3K α, β, δ, and γ, the nM concentration of inhibitor to reach IC50 is provided. […] Similar assays, and others known in the art, can be used to measure the percent inhibition of other kinases, including but not limited to PI3K class II kinases, phosphoinositide 4 kinases (PI4K), and phosphoinositide 5 kinases (PI5K).

[2] = target: T2, PI3K β (Homo sapiens, UniProt P42338); assay: PI 3-Kinase HTRF inhibition assay, PI3K β; settings: in vitro
T2 construct: purchased Upstate
T2 sequence (P42338 whole entry): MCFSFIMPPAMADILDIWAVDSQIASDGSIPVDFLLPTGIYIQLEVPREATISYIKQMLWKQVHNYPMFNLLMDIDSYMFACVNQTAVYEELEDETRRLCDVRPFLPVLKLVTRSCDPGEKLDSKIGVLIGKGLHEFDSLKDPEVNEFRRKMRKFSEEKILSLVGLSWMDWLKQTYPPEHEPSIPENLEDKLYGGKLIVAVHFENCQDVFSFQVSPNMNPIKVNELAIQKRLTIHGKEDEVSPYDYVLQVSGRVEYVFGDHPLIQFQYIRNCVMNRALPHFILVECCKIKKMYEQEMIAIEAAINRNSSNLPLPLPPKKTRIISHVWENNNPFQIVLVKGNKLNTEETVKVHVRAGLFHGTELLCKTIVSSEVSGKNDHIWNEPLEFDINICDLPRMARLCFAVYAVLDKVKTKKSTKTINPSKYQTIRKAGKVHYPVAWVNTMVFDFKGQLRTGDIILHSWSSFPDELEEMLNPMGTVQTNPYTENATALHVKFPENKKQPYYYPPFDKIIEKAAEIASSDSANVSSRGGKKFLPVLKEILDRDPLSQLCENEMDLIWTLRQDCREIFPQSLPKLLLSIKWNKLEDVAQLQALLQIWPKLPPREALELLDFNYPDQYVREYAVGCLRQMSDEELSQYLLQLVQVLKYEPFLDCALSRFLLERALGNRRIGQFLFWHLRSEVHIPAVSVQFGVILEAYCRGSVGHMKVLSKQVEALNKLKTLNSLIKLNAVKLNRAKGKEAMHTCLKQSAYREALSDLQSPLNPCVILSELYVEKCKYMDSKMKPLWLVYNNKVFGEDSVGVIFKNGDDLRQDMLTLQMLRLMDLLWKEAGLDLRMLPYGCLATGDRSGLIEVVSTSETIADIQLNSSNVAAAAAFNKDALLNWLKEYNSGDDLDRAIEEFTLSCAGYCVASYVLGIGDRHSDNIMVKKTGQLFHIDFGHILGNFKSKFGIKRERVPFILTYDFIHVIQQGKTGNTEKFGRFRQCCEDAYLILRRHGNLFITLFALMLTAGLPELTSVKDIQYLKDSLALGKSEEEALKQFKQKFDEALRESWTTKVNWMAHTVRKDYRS
T2 sequence (P27986 whole entry partner): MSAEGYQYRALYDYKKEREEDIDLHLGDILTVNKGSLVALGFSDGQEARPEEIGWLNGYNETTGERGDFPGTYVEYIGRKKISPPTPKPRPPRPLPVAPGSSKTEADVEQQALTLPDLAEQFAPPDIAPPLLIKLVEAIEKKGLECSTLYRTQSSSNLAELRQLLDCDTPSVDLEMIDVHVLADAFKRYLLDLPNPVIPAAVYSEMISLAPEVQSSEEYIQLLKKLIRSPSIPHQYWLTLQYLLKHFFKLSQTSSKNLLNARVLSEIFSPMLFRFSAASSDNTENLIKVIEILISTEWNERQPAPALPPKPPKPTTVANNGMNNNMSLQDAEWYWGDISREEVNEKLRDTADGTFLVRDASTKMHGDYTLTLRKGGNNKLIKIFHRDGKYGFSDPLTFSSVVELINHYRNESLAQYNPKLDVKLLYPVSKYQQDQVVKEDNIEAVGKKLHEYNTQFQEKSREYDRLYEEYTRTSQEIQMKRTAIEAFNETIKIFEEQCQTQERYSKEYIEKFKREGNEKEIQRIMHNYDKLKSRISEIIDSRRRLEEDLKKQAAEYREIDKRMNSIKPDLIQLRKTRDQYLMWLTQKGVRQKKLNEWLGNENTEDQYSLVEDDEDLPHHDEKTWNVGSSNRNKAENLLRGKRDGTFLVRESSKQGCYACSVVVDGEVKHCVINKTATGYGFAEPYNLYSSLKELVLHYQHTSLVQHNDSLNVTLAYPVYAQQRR
Procedure: as §1

[3] = target: T3, PI3K δ (Homo sapiens, UniProt O00329); assay: PI 3-Kinase HTRF inhibition assay, PI3K δ
T3 construct: purchased Upstate
T3 sequence (O00329 whole entry): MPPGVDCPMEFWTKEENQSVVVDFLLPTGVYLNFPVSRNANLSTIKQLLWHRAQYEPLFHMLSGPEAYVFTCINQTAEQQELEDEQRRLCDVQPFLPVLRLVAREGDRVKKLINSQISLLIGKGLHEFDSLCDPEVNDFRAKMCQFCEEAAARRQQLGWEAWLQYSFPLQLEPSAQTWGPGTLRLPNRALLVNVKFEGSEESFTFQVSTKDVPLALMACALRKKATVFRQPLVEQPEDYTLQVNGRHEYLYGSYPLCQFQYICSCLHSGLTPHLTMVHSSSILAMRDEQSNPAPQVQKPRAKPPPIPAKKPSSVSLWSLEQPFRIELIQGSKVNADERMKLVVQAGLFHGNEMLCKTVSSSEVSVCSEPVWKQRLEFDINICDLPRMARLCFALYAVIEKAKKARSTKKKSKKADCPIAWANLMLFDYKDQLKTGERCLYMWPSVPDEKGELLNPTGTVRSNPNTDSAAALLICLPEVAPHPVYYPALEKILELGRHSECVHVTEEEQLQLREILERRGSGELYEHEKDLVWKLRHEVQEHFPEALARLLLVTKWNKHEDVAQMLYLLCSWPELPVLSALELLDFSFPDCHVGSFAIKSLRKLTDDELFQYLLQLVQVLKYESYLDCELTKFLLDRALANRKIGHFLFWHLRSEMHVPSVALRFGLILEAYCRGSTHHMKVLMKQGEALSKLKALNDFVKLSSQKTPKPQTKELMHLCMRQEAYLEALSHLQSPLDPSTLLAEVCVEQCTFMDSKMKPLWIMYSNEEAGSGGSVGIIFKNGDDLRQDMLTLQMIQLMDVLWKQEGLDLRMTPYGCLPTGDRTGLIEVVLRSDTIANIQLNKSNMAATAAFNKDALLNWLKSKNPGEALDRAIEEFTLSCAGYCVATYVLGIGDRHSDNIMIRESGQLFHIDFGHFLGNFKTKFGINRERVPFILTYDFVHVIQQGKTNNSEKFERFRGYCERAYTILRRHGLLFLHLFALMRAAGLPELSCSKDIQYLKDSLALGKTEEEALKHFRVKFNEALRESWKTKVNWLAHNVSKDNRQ
T3 sequence (P27986 whole entry partner): as the sequence (P27986 whole entry partner) above
Procedure: as §1

[4] = target: T4, PI3K γ (Homo sapiens, UniProt P48736); assay: PI 3-Kinase HTRF inhibition assay, PI3K γ; settings: in vitro
T4 construct: purchased Upstate
T4 sequence (P48736 whole entry): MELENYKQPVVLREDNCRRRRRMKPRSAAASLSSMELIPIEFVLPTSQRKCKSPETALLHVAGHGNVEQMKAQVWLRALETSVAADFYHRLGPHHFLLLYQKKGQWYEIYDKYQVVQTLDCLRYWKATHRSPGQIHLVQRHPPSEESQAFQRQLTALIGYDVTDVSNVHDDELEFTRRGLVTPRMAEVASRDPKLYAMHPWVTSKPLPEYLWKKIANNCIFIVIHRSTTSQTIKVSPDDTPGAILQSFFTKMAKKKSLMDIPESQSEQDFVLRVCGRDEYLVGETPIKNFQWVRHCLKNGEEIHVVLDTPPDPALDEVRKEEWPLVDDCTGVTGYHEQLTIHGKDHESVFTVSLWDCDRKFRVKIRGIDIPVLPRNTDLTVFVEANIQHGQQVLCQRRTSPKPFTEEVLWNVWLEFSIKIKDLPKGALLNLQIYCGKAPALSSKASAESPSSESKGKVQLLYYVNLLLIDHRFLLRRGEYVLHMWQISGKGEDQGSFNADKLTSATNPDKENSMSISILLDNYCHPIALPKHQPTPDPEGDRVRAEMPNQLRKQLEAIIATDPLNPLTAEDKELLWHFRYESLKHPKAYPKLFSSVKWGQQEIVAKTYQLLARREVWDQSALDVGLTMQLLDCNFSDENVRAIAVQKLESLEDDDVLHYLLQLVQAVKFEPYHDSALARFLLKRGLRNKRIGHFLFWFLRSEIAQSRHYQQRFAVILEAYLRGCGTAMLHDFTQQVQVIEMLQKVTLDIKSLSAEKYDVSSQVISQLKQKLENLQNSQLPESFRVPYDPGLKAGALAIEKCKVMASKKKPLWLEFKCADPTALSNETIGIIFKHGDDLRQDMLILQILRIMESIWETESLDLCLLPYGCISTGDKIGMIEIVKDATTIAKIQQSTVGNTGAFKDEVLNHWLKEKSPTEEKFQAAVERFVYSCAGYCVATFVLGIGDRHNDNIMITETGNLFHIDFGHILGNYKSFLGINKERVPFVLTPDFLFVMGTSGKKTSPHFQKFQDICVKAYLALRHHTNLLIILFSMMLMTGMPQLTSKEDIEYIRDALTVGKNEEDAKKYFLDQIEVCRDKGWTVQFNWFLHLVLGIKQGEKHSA

[5] = in vitro, read-out: PI3K α IC50
[6] = in vitro, read-out: PI3K δ IC50

T1 sequence (P42336 whole entry): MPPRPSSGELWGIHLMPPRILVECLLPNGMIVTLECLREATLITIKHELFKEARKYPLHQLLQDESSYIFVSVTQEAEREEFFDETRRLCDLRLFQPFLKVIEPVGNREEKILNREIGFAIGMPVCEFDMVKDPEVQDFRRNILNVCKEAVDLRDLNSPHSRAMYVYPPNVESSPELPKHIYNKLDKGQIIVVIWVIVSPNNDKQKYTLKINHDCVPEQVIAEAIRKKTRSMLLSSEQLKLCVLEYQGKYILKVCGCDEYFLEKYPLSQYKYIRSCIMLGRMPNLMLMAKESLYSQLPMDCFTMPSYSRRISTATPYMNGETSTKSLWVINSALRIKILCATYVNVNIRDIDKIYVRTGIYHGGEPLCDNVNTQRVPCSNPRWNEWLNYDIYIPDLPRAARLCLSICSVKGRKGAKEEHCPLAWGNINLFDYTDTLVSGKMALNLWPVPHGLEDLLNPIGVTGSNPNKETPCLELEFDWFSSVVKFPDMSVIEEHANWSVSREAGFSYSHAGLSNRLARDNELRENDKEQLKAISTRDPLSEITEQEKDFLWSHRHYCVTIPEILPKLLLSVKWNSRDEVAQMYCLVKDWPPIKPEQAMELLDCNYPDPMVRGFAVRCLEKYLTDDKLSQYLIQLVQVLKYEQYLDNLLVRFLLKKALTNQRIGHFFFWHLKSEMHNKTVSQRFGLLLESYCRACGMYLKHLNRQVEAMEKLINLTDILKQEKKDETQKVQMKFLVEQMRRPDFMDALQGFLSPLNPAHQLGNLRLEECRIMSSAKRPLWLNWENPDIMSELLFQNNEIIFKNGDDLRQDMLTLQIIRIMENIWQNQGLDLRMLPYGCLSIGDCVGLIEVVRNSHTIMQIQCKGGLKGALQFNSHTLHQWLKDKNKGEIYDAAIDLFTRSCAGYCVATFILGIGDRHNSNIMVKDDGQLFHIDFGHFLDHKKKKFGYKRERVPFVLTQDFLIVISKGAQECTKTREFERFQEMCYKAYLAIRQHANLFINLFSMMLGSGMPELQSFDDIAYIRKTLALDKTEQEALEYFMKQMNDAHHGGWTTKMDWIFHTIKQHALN
T1 sequence (P27986 whole entry partner): as the sequence (P27986 whole entry partner) above

IC50 [1, 5] [µM]	IC50 [2] [µM]	IC50 [3, 6] [µM]	IC50 [4] [µM]	SMILES	IC50 [3] [µM]	IC50 [1] [µM]
< 0.1	< 10	< 10	< 10	Nc1nc2cc(-c3ccc4ncc(N5CC(N6CCN(CC7CC7)CC6)C5)nc4n3)ccc2o1 [Compound 35]		
< 0.1	< 10	> 10	< 0.1	CCOC(=O)N1CCN(c2cnc3ccc(-c4ccc5oc(N)nc5c4)nc3c2)CC1 [Compound 36]		
< 0.1	< 1	< 1	< 1	NCC(=O)N1CCN(c2cnc3ccc(-c4ccc5oc(N)nc5c4)nc3c2)CC1 [Compound 37]		
< 0.1	< 1	< 1	< 1	C[C@H](N)C(=O)N1CCN(c2cnc3ccc(-c4ccc5oc(N)nc5c4)nc3c2)CC1 [Compound 38]		
< 0.1	< 0.1	< 1	< 1	C[C@@H](N)C(=O)N1CCN(c2cnc3ccc(-c4ccc5oc(N)nc5c4)nc3c2)CC1 [Compound 39]		
< 0.1	< 10	< 10	< 10	CC(C)(N)C(=O)N1CCN(c2cnc3ccc(-c4ccc5oc(N)nc5c4)nc3n2)CC1 [Compound 40]		
< 0.1	< 1	< 1	< 0.1	Nc1nc2cc(-c3ccc4ncc(N5CCN(C(=O)C6(N)CC6)CC5)cc4n3)ccc2o1 [Compound 42]		
< 0.1	< 1	< 1	< 1	CC(C)N1CCN(c2cnc3ccc(-c4ccc5oc(N)nc5c4)nc3c2)CC1 [Compound 44]		
< 0.1	< 10	> 10	< 0.1	Nc1nc2cc(-c3ccc4ncc(N5CCC(O)CC5)nc4n3)ccc2o1 [Compound 45]		
< 0.1	< 10	< 10	< 10	Nc1nc2cc(-c3ccc4ncc(N5CC(N6CCN(CCO)CC6)C5)nc4n3)ccc2o1 [Compound 46]		
< 0.1	< 0.1	< 10	< 1	C[C@H]1CN(c2cnc3ccc(-c4ccc5oc(N)nc5c4)nc3c2)CCN1 [Compound 47]		
< 0.1	< 1	< 10	< 10	C[C@@H]1CN(c2cnc3ccc(-c4ccc5oc(N)nc5c4)nc3c2)CCN1 [Compound 48]		
< 10	> 10	> 10	< 10	C[C@@H]1COCCN1C1CN(c2cnc3ccc(-c4ccc5oc(N)nc5c4)nc3n2)C1 [Compound 49]		
< 0.1	< 10	< 10	< 10	Cc1nccn1C1CN(c2cnc3ccc(-c4ccc5oc(N)nc5c4)nc3n2)C1 [Compound 50]		
< 0.1	< 10	< 1	< 10	CC1(C)CN(C2CN(c3cnc4ccc(-c5ccc6oc(N)nc6c5)nc4n3)C2)CCN1 [Compound 52]		
< 0.1	< 10	< 10	< 1	Nc1nc2cc(-c3ccc4ncc(N5CC(N6CCOCC6)C5)cc4n3)ccc2o1 [Compound 53]		
< 0.1	< 10	< 1	< 10	C[C@H]1CN(C2CN(c3cnc4ccc(-c5ccc6oc(N)nc6c5)nc4c3)C2)CCN1 [Compound 54]		
< 0.1	< 10	< 1	< 1	C[C@@H]1CN(C2CN(c3cnc4ccc(-c5ccc6oc(N)nc6c5)nc4c3)C2)CCN1 [Compound 56]		
< 0.1	< 10	< 1	< 10	C[C@@H]1CN(C2CN(c3cnc4ccc(-c5ccc6oc(N)nc6c5)nc4c3)C2)CCN1C [Compound 57]		
< 0.1	< 10	< 1	< 1	CC1(C)CN(C2CN(c3cnc4ccc(-c5ccc6oc(N)nc6c5)nc4c3)C2)CCN1 [Compound 58]		

IC50 [1, 5] [µM]	IC50 [2] [µM]	IC50 [3, 6] [µM]	IC50 [4] [µM]	SMILES	IC50 [3] [µM]	IC50 [1] [µM]
< 0.1	> 10	> 10	< 0.1	Nc1nc2cc(-c3ccc4ncc(N5CC6CCC(C5)O6)cc4n3)ccc2o1 [Compound 59]		
< 0.1	< 10	< 1	< 10	Nc1nc2cc(-c3ccc4ncc(N5CC(N6CCN(CC7CC7)CC6)C5)cc4n3)ccc2o1 [Compound 60]		
< 0.1	> 10	< 10	< 10	C[C@H]1COCCN1C1CN(c2cnc3ccc(-c4ccc5oc(N)nc5c4)nc3n2)C1 [Compound 61]		
< 0.1	< 10	< 10	< 1	Nc1nc2cc(-c3ccc4ncc(N5CCC(O)CC5)cc4n3)ccc2o1 [Compound 62]		
< 0.1	< 10	< 1	< 0.1	Cc1nccn1C1CN(c2cnc3ccc(-c4ccc5oc(N)nc5c4)nc3c2)C1 [Compound 63]		
< 0.1	< 10	< 1	< 0.1	CN1CCN(C2CN(c3cnc4ccc(-c5ccc6oc(N)nc6c5)nc4c3)C2)CC1=O [Compound 64]		
< 0.1	< 10	< 1	< 1	Nc1nc2cc(-c3ccc4ncc(N5CC(N6CCN(CCO)CC6)C5)cc4n3)ccc2o1 [Compound 65]		
< 0.1	< 10	< 1	< 0.1	C[C@@H]1COCCN1C1CN(c2cnc3ccc(-c4ccc5oc(N)nc5c4)nc3c2)C1 [Compound 66]		
< 0.1	> 10	> 10	< 10	C[C@H]1COCCN1C1CN(c2cnc3ccc(-c4ccc5oc(N)nc5c4)nc3c2)C1 [Compound 68]		
< 0.1	< 10	< 10	< 10	Nc1nc2cc(-c3ccc4ncc(N5CC(N6CCN(C7CC7)CC6)C5)nc4n3)ccc2o1 [Compound 69]		
< 0.1	< 10	< 10	< 1	Nc1nc2cc(-c3ccc4ncc(N5CC(N6CCN(C7CC7)CC6)C5)cc4n3)ccc2o1 [Compound 70]		
< 0.1	< 10	< 1	> 10	CN1CCN(C2CN(c3cnc4ccc(-c5ccc6oc(N)nc6c5)nc4n3)C2)CC1 [Compound 71]		
< 10	> 10	> 10	< 10	Nc1nc2cc(-c3cnc4ccc(N5CCOCC5)nc4c3)ccc2o1 [Compound 73, 5-(6-morpholino-1,5-naphthyridin-3-yl)benzo[d]oxazol-2-amine]		
< 0.1	< 1	< 1	< 1	CN1CCN(C2CN(c3cnc4ccc(-c5ccc6oc(N)nc6c5)nc4c3)C2)CC1 [Compound 74]		
< 0.1	< 1	< 1	< 10	CCN1CCN(C2CN(c3cnc4ccc(-c5ccc6oc(N)nc6c5)nc4c3)C2)CC1 [Compound 75]		
< 0.1	< 10	< 10	< 10	CCN1CCN(C2CN(c3cnc4ccc(-c5ccc6oc(N)nc6c5)nc4n3)C2)CC1 [Compound 76]		
< 10	> 10	> 10	> 10	CC(C)N1CCN(C2CN(c3cnc4ccc(-c5ccc6oc(N)nc6c5)nc4n3)C2)CC1 [Compound 77]		
< 10	< 10	> 10	> 10	CN1CCN(c2ccc3ncc(-c4ccc5oc(N)nc5c4)cc3n2)CC1 [Compound 80]		
< 10	> 10	> 10	< 10	CC(C)(N)C(=O)N1CCN(c2ccc3ncc(-c4ccc5oc(N)nc5c4)cc3n2)CC1 [Compound 82]		

SMILES	IC50 [1, 5] [µM]	IC50 [2] [µM]	IC50 [3, 6] [µM]	IC50 [4] [µM]	IC50 [3] [µM]	IC50 [1] [µM]
Nc1nc2cc(-c3ccc4ncc(N5CC(N6C7CCC6COC7)C5)nc4n3)ccc2o1 [Compound 51]	< 10	> 10	> 10	> 10		
C[C@H]1CN(C2CN(c3cnc4ccc(-c5ccc6oc(N)nc6c5)nc4c3)C2)CCN1C [Compound 55]	< 0.1	< 10	< 1	< 10		
Nc1nc2cc(-c3ccc4ncc(N5CC(N6C7CCC6COC7)C5)cc4n3)ccc2o1 [Compound 67]	< 0.1	> 10		< 1	< 10	
Nc1nc2cc(-c3cnc4ccc(N5C6CCC5COC6)nc4c3)ccc2o1 [Compound 81]		> 10	> 10	< 10		< 10
